Literature values as cited in patent publication US20090062282A1, “Substituted Amino-Pyrimidones and Uses Thereof” (AstraZeneca AB, priority 2004, published 2009).
Square brackets hold non-standard residues; d marks the D form. Peptide text beside a SMILES is read from it. * marks the point of attachment. Sta = CC(C)C[C@H](N)[C@@H](O)CC(=O)O; Isovaleryl = CC(C)CC(=O)*

Target: BACE (Homo sapiens, UniProt P56817)
Sequence (P56817 46-501): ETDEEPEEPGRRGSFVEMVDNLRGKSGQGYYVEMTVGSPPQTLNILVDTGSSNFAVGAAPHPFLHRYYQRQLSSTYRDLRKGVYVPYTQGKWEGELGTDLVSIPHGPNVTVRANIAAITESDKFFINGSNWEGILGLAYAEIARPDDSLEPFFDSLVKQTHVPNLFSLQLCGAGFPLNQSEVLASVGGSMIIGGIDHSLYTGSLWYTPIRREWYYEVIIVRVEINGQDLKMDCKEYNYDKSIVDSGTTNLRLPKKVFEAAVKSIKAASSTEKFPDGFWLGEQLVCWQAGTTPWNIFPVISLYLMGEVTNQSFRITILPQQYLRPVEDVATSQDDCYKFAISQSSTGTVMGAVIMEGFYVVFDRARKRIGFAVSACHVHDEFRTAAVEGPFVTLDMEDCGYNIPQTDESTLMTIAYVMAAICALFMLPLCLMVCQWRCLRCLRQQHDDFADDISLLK

CC(C)CC(=O)N[C@H](C(=O)N[C@H](C(=O)N[C@@H](CC(C)C)[C@@H](O)CC(=O)N[C@@H](C)C(=O)N[C@@H](CC(C)C)[C@@H](O)CC(=O)O)C(C)C)C(C)C [pepstatin] (Isovaleryl-VV[Sta]A[Sta]-OH)
inhibition of BACE: inhibited weakly
